#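 All cell lines were grown in 96-well plates and treated with compound for 48 hours. GI50 is the concentration that inhibits growth by half. The concentration for full growth arrest is given as TGI.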
# Columns and labels:
# Assay in all cases: NCI-60 cell line screen, 48 h
# [1] = system: UACC-62 melanoma
# [2] = system: SN12C renal
# [3] = system: 786-0 renal
# [4] = system: A549 NSCLC
# [5] = system: HL-60(TB) leukemia
# [6] = system: HOP-62 NSCLC
# [7] = system: OVCAR-5 ovarian
# [8] = system: SK-MEL-28 melanoma
# [9] = system: MALME-3M melanoma
# [10] = system: EKVX NSCLC
# [11] = system: SK-MEL-5 melanoma
# [12] = system: SF-539 CNS
# [13] = system: NCI/ADR-RES ovarian
# [14] = system: SR leukemia
# [15] = system: TK-10 renal
# [16] = system: KM12 colon
# [17] = system: M14 melanoma
# [18] = system: OVCAR-8 ovarian
# [19] = system: NCI-H460 lung
# [20] = system: SF-268 CNS
# [21] = system: CCRF-CEM leukemia
# [22] = system: SW-620 colon
# [23] = system: HCT-15 colon
# [24] = system: K-562 leukemia
# [25] = system: HOP-92 NSCLC
# [26] = system: PC-3 prostate
# [27] = system: HCT-116 colon
# [28] = system: HCC-2998 colon
# [29] = system: OVCAR-3 ovarian
smiles,measurement,setting,value
O=C(CCCCCCNC(=O)C(O)(O)C(F)(F)F)Nc1ccc(Br)cc1,GI50,[1],1.59 µM
same,TGI,[1],6.2 µM
same,GI50,[2],5.01 µM
same,TGI,[2],24.6 µM
same,GI50,[3],4.47 µM
same,TGI,[3],> 33 µM
same,GI50,[4],8.39 µM
same,TGI,[4],> 33 µM
same,GI50,[5],2.21 µM
same,TGI,[5],> 33 µM
same,GI50,[6],4.29 µM
same,TGI,[6],> 33 µM
same,GI50,[7],1.96 µM
same,TGI,[7],12.5 µM
same,GI50,[8],2.38 µM
same,TGI,[8],18.7 µM
same,GI50,[9],1.54 µM
same,TGI,[9],> 33 µM
same,GI50,[10],5.49 µM
same,TGI,[10],> 33 µM
same,GI50,[11],4.14 µM
same,TGI,[11],8.46 µM
same,GI50,[12],5.87 µM
same,TGI,[12],> 33 µM
same,GI50,[13],4.12 µM
same,TGI,[13],18.6 µM
same,GI50,[14],1.74 µM
same,TGI,[14],> 33 µM
same,GI50,[15],1.09 µM
same,TGI,[15],> 33 µM
same,GI50,[16],4.82 µM
same,TGI,[16],24.3 µM
same,GI50,[17],7.12 µM
same,TGI,[17],> 33 µM
same,GI50,[18],2.32 µM
same,TGI,[18],> 33 µM
same,GI50,[19],2.41 µM
same,TGI,[19],> 33 µM
same,GI50,[20],5.78 µM
same,TGI,[20],21.8 µM
same,GI50,[21],1.9 µM
same,TGI,[21],> 33 µM
same,GI50,[22],1.57 µM
same,TGI,[22],7.16 µM
same,GI50,[23],5.23 µM
same,TGI,[23],14.1 µM
same,GI50,[24],1.2 µM
same,TGI,[24],> 33 µM
same,GI50,[25],0.554 µM
same,TGI,[25],3.25 µM
same,GI50,[26],2.86 µM
same,TGI,[26],> 33 µM
same,GI50,[27],1.12 µM
same,TGI,[27],> 33 µM
same,GI50,[28],5.35 µM
same,TGI,[28],13.2 µM
same,GI50,[29],2.22 µM
